Results on two molecules are retold here after EP0007995A1, “Chemotherapeutic preparations and their manufacture” (F. HOFFMANN-LA ROCHE & CO. Aktiengesellschaft, priority 1978, dated 1980).

The subject of series [1] is Streptococcus pyogenes β15. Kind of series: In vivo activity in infected mouse. Conditions: po; Maus, p.o., gegen Streptococcus pyogenes β15; read-out: CD50 p.o.
The subject of series [2] is Pseudomonas aeruginosa BA. The series is described as follows: In vivo activity in infected mouse. Conditions: po; Maus, p.o., gegen Pseudomonas aeruginosa BA; read-out: CD50 p.o.
A further series relates to E. coli 1346. The series is described as follows: In vivo activity in infected mouse. The settings on record: Escherichia coli, po; Maus, p.o., gegen E. coli 1346; read-out: CD50 p.o.
For a further series, the system named is Salmonella typhimurium. Kind of series: In vivo activity in infected mouse. The settings on record: Salmonella enterica, po; Maus, p.o., gegen Salmonella typhimurium; read-out: CD50 p.o.
A further series relates to Proteus mirabilis. The series is described as follows: In vivo activity in infected mouse. Conditions: po; Maus, p.o., gegen Proteus mirabilis; read-out: CD50 p.o.
A short description of a further series: Water solubility. It counts as physicochemical. The method, then:
Wie gefunden wurde, lassen sich mit Fluoramphenicol wässrige Lösungen in Konzentrationen bis zu 0,5 g/10 ml herstellen. Solche Lösungen stellen eine wertvolle parenterale Applikationsform, insbesondere für die intravenöse Injektion und -Infusion dar. Dank seiner guten Wasserlöslichkeit eignet sich Fluoramphenicol auch für die Herstellung von ophthalmologischen Präparaten mit besonders guter Verträglichkeit, insbesondere für die Herstellung von Augentropfen.

In another series the test system is menschlichen Lymphozyten. The settings on record: human.
The conditions of series [3]: in vivo.
For series [4] the following is noted: J. Pharm. Pharmacol. 3 [1951], 143; cited from earlier work.
A further series in a line: in vivo. The settings on record: mouse.
A further series can be described thus: Acute toxicity. Conditions: mouse, in vivo.

In general, LD50 refers to the dose expected to kill half of the subjects tested. A higher LD50 goes with a less toxic substance.

SMILES strings stand for the structures.

As for `O=C(N[C@H](CO)[C@H](O)c1ccc([N+](=O)[O-])cc1)C(F)F` [Fluoramphenicol, D-threo-1-(p-Nitrophenyl)-2-difluor-acetamino-l,3-propandiol], the ED50 in [1] is 11 mg/kg; in series [2] it was 33 mg/kg; in the series on E. coli 1346, 6.6 mg/kg; in the series with Salmonella typhimurium, 19 mg/kg; in the series with Proteus mirabilis, 5.2 mg/kg. For the same molecule, in the series “Water solubility” (aqueous solution), the “wässrige Lösungen in Konzentrationen” value is reported as ≤ 0,5 g/10 ml. In addition, the Wasserlöslichkeit result in “Water solubility” (result in words) was “unerwartet hohe Wasserlöslichkeit”. Further, the “Cytotoxizität gegenüber menschlichen Lymphozyten, mal weniger toxisch als Chloramphenicol” value with menschlichen Lymphozyten is ~3 mal. Moreover, the “Cytotoxizität gegenüber KB-Zellen, mal weniger toxisch als Chloramphenicol” value in the series on KB-Zellen is recorded as 3-5 mal. Besides, in series [3], the “metabolic stability (concluded from urine recovery)” value is given as “metabolisch beständig”. For the same molecule, the Serumkonzentrationen result in [3] (po) is reported as “höhere Serumkonzentrationen als Chloramphenicol”. Also, in series [3] (po), the “Urinkonzentrationen, mal höher als Chloramphenicol” value is “ca. lO”. Further, the “mal langsamer ausgeschieden als Chloramphenicol” value in [3] (po) was 2-3 mal. The “totale Urin-recovery an aktivem Fluoramphenicol, mal höher als an aktivem Chloramphenicol” value in [3] (po) was “ca. lO”. Further, the biological activity entry in series [4] was “biologisch unwirksam”. Also, the median lethal dose (LD50) fell in the range of 2000 to 3000 mg/kg in the series “in vivo” (ip) and 3000 to 4000 mg/kg in “in vivo” (po).
Consider `O=C(N[C@H](CO)[C@H](O)c1ccc([N+](=O)[O-])cc1)C(Cl)Cl` [Chloramphenicol, reference compound], for which the ED50 in series [1] was determined as 22 mg/kg; in series [2], 93 mg/kg; with E. coli 1346, 6.6 mg/kg; with Salmonella typhimurium, 18 mg/kg; with Proteus mirabilis, 5.8 mg/kg. Besides, the LD50 in “Acute toxicity” (ip) was in the range of 1000 to 1500 mg/kg; in the series “Acute toxicity” (po), 2000 to 3000 mg/kg.
